The values below come from BindingDB's records for patent US10494376 (CTXT PTY. LTD., 2019).

pIC50: −log10 of the molar value.

The experiment has as its target Protein arginine N-methyltransferase 5 (Homo sapiens, UniProt O14744). Kind of experiment: Revised Biochemical Assay. On the procedure:
Compounds of the invention may be tested for in vitro activity in the following assay: A histone H4 derived peptide is used as substrate (amino acid sequence: […]N H2). Full-length PRMT5 enzyme (NCBI Reference sequence NP_006100.2) was co-expressed with His6-MEP50 in insect cells and purified via Nickel immobilized metal affinity and gel filtration chromatography (the enzyme).The 6 μL reactions are run in Greiner brand black 384-well low volume assay plates. All reactions contained assay buffer (phosphate buffered saline, 0.01% (v/v) Tween-20, 0.01% (w/v) albumin from chicken egg white, 1 mM Dithiothreitol, 1 μM peptide substrate, 1 μM S-Adenosyl methionine, and 15 ng/reaction enzyme, with the enzyme being omitted from negative control reactions. Compounds were added in a volume of 100 nL from dilution series prepared in DMSO, positive and negative control reactions receiving the same volume DMSO without compound. The plates were sealed with adhesive seals and incubated for 4 hours at 37 degree Celsius. Reaction progress was measured using the Transcreener EPIGEN methyltransferase assay (BellBrook Labs, Madison, Wis.) as recommended by the manufacturer. To each reaction 2 μL detection mix were added, containing coupling enzymes, fluorescence polarisation tracer, and AMP antibody. […]

Sequence of Protein arginine N-methyltransferase 5 (O14744 whole entry): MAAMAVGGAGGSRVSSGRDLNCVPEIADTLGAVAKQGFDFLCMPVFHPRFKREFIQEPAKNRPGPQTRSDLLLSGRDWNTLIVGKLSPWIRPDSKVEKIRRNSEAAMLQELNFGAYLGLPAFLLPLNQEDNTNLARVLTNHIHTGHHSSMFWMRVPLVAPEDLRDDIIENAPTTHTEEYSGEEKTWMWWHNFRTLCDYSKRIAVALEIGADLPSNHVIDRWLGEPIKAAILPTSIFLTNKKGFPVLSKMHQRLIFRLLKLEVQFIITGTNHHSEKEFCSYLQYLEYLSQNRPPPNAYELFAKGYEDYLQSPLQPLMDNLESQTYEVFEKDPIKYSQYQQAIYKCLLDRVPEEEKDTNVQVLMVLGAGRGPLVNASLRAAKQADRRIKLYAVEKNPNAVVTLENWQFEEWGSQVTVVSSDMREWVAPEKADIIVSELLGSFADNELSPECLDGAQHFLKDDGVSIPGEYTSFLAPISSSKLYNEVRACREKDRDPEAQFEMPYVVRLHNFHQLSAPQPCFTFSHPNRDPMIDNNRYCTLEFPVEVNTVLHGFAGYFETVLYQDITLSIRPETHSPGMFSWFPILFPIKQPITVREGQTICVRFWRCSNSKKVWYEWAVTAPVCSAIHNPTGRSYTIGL

In turn, `COC(=O)N1CCC(N(C)C(=O)c2ccc(C(=O)NC[C@@H](O)[C@@H]3Cc4ccccc4CN3)cc2)CC1` [US10494376, Example 20] gave a pIC50 of 4.93.
